Biological target: T1, Recombinant human CES1 (CES1b/CES1A1) (Homo sapiens, UniProt P23141)
T1 sequence (P23141 18-567): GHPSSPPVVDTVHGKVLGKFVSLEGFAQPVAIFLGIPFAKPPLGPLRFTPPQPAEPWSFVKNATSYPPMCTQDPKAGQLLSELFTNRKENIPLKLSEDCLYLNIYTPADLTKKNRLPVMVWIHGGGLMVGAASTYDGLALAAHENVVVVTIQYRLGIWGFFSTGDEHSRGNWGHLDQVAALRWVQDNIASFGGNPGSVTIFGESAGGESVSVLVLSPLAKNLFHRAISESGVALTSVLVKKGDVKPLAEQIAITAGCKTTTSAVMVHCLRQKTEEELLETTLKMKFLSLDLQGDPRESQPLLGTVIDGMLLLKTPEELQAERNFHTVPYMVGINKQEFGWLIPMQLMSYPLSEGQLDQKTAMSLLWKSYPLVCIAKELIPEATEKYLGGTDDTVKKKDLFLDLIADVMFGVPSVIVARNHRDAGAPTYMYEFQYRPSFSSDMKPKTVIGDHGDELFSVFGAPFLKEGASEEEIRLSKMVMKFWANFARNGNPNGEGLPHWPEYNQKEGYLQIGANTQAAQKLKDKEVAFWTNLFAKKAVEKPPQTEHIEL
Assay: In vitro inhibition of recombinant CES1
Format: biochemical
Settings: for IC50 relative to diltiazem: recombinant CES1, fold higher than IC50 of diltiazem

Row | SMILES | IC50 | IC50 relative to diltiazem
1 | C[C@H](CCC(=O)O)[C@H]1CC[C@H]2[C@@H]3[C@H](O)C[C@@H]4C[C@H](O)CC[C@]4(C)[C@H]3CC[C@]12C [Chenodeoxycholic acid] | 13.5 µM | 
2 | C[C@H](CCC(=O)NCC(=O)O)[C@H]1CC[C@H]2[C@@H]3[C@H](O)C[C@@H]4C[C@H](O)CC[C@]4(C)[C@H]3CC[C@]12C [Glycochenodeoxycholic acid] |  | ~10 fold
3 | C[C@H](CCC(=O)NCCS(=O)(=O)O)[C@H]1CC[C@H]2[C@@H]3[C@H](O)C[C@@H]4C[C@H](O)CC[C@]4(C)[C@H]3CC[C@]12C [Taurochenodeoxycholic acid] |  | more than fourfold higher
4 | C[C@H](CCC(=O)NCCS(=O)(=O)O)[C@H]1CC[C@H]2[C@@H]3[C@H](O)C[C@@H]4C[C@H](O)CC[C@]4(C)[C@H]3C[C@H](O)[C@]12C [Taurocholic acid] | 19.5 µM | 
